Reference: patent US6376497B1, “Antifungal azole derivatives having a fluorinated vinyl group and process for preparing same” (Korea Research Institute of Chemical Technology, priority 1999, dated 2002)

Columns and labels:
Assay in all cases: In vitro antifungal activity, microbroth dilution MIC
Format in all cases: cell-based
[1] = system: Candida tropicalis A. 13803; conditions: 4 to 48 hours; for Minimal inhibitory concentration(MIC), C. tropicalis A. 13803: RPMI-1640, 35° C., no growth observed; for Minimal inhibitory concentration (MIC): C. tropicalis A. 13803, RPMI-1640, 35° C.
Procedure, shortened: (§1)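 Broth microdilution adapted from NCCLS M27, in RPMI-1640 with 0.165 M MOPS, pH 7.0. Yeast or mould inoculum at 2×10^3 CFU/ml was mixed 1:1 with DMSO-derived compound solutions (200 to 0.10 μg/ml before mixing) and incubated at 35 °C for 4 to 48 h. MIC was the concentration showing no growth.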

[2] = system: Cryptococcus neoformans IFM. 40092; conditions: 4 to 48 hours; for Minimal inhibitory concentration(MIC), Cry. neoformans IFM. 40092: RPMI-1640, 35° C., no growth observed; for Minimal inhibitory concentration (MIC): Cry. neoformans IFM. 40092, RPMI-1640, 35° C.
Procedure, shortened: as §1

[3] = system: Aspergillus niger A. 16404; conditions: 4 to 48 hours; for Minimal inhibitory concentration(MIC), A. niger A. 16404: RPMI-1640, 35° C., no growth observed; for Minimal inhibitory concentration (MIC): A. niger A. 16404, RPMI-1640, 35° C.
Procedure, shortened: as §1

Candida albicans C1-2 = conditions: 4 to 48 hours; for Minimal inhibitory concentration(MIC), C. albicans C1-2: RPMI-1640, 35° C., no growth observed; for Minimal inhibitory concentration (MIC): C. albicans C1-2, RPMI-1640, 35° C.
Procedure, shortened: as §1

[4] = system: Torulopsis glabrata B. 16205; conditions: 4 to 48 hours; for Minimal inhibitory concentration(MIC), T. glabrata B. 16205: RPMI-1640, 35° C., no growth observed; for Minimal inhibitory concentration (MIC): T. glabrata B. 16205, RPMI-1640, 35° C.
Procedure, shortened: as §1

[5] = system: Candida albicans IFO. 1385; conditions: 4 to 48 hours; for Minimal inhibitory concentration(MIC), C. albicans IFO. 1385: RPMI-1640, 35° C., no growth observed; for Minimal inhibitory concentration (MIC): C. albicans IFO. 1385, RPMI-1640, 35° C.
Procedure, shortened: as §1

[6] = system: Trichophyton mentagrophytes A. 9129; conditions: 4 to 48 hours; for Minimal inhibitory concentration(MIC), T. mentagrophytes A. 9129: RPMI-1640, 35° C., no growth observed; for Minimal inhibitory concentration (MIC): T. mentagrophytes A. 9129, RPMI-1640, 35° C.
Procedure, shortened: as §1

[7] = system: Candida pseudotropicalis K. 11658; conditions: 4 to 48 hours; for Minimal inhibitory concentration(MIC), C. pseudotropicalis K. 11658: RPMI-1640, 35° C., no growth observed; for Minimal inhibitory concentration (MIC): C. pseudotropicalis K. 11658, RPMI-1640, 35° C.
Procedure, shortened: as §1

[8] = system: Cryptococcus neoformans B. 42419; conditions: 4 to 48 hours; for Minimal inhibitory concentration(MIC), Cry. neoformans B. 42419: RPMI-1640, 35° C., no growth observed; for Minimal inhibitory concentration (MIC): Cry. neoformans B. 42419, RPMI-1640, 35° C.
Procedure, shortened: as §1

[9] = system: Trichophyton mentagrophytes B. 32663; conditions: 4 to 48 hours; for Minimal inhibitory concentration(MIC), T. mentagrophytes B. 32663: RPMI-1640, 35° C., no growth observed; for Minimal inhibitory concentration (MIC): T. mentagrophytes B. 32663, RPMI-1640, 35° C.
Procedure, shortened: as §1

[10] = system: Candida parapsitosis A. 7330; conditions: 4 to 48 hours; for Minimal inhibitory concentration(MIC), C. parapsitosis A. 7330: RPMI-1640, 35° C., no growth observed; for Minimal inhibitory concentration (MIC): C. parapsitosis A. 7330, RPMI-1640, 35° C.
Procedure, shortened: as §1

Candida krusei K. 11655 = conditions: 4 to 48 hours; for Minimal inhibitory concentration(MIC), C. krusei K. 11655: RPMI-1640, 35° C., no growth observed; for Minimal inhibitory concentration (MIC): C. krusei K. 11655, RPMI-1640, 35° C.
Procedure, shortened: as §1

[11] = system: Cryptococcus neoformans A. 34144; conditions: 4 to 48 hours; for Minimal inhibitory concentration(MIC), Cry. neoformans A. 34144: RPMI-1640, 35° C., no growth observed; for Minimal inhibitory concentration (MIC): Cry. neoformans A. 34144, RPMI-1640, 35° C.
Procedure, shortened: as §1

[12] = system: Candida albicans A. 10231; conditions: 4 to 48 hours; for Minimal inhibitory concentration(MIC), C. albicans A. 10231: RPMI-1640, 35° C., no growth observed; for Minimal inhibitory concentration (MIC): C. albicans A. 10231, RPMI-1640, 35° C.
Procedure, shortened: as §1

[13] = system: Aspergillus furnigatus B. 19119; conditions: 4 to 48 hours; for Minimal inhibitory concentration(MIC), A furnigatus B. 19119: RPMI-1640, 35° C., no growth observed; for Minimal inhibitory concentration (MIC): A furnigatus B. 19119, RPMI-1640, 35° C.
Procedure, shortened: as §1

Minimal inhibitory concentration(MIC), C. tropicalis A. 13803 [1] [µg/mL]	Minimal inhibitory concentration(MIC), Cry. neoformans IFM. 40092 [2]	Minimal inhibitory concentration(MIC), A. niger A. 16404 [3] [µg/mL]	Minimal inhibitory concentration(MIC), C. albicans C1-2 (Candida albicans C1-2) [µg/mL]	Minimal inhibitory concentration(MIC), T. glabrata B. 16205 [4] [µg/mL]	Minimal inhibitory concentration(MIC), C. albicans IFO. 1385 [5] [µg/mL]	Minimal inhibitory concentration(MIC), T. mentagrophytes A. 9129 [6] [µg/mL]	Minimal inhibitory concentration(MIC), C. pseudotropicalis K. 11658 [7] [µg/mL]	Minimal inhibitory concentration(MIC), Cry. neoformans B. 42419 [8] [µg/mL]	Minimal inhibitory concentration(MIC), T. mentagrophytes B. 32663 [9]	Minimal inhibitory concentration(MIC), C. parapsitosis A. 7330 [10] [µg/mL]	Minimal inhibitory concentration(MIC), C. krusei K. 11655 (Candida krusei K. 11655) [µg/mL]	Minimal inhibitory concentration(MIC), Cry. neoformans A. 34144 [11] [µg/mL]	Minimal inhibitory concentration(MIC), C. albicans A. 10231 [12] [µg/mL]	Minimal inhibitory concentration(MIC), A furnigatus B. 19119 [13] [µg/mL]	Minimal inhibitory concentration (MIC) [1] [µg/mL]	Minimal inhibitory concentration (MIC) [2] [µg/mL]	Minimal inhibitory concentration (MIC) [3] [µg/mL]	Minimal inhibitory concentration (MIC) (Candida albicans C1-2) [µg/mL]	Minimal inhibitory concentration (MIC) [4] [µg/mL]	SMILES	other results
>100	0.39 µg/mL	>100	50.0	100	3.13	6.25	>100	3.13	3.13 µg/mL	>100	>100	1.56	100	>100	–	–	–	–	–	Cc1ccc(C(=C(F)Oc2ccc(OCC3COC(Cn4ccnc4)(c4ccc(F)cc4F)O3)cc2)C(F)(F)F)cc1C (mixture of isomers) [Ex. 110]	–
>100	≦0.10 μg/ml	100	>100	100	0.78	3.13	1.56	0.78	≦0.10 μg/ml	0.78	1.56	0.78	>100	12.5	–	–	–	–	–	FC(=C(c1ccccc1)C(F)(F)F)N1CCN(c2ccc(OCC3COC(Cn4ccnc4)(c4ccc(F)cc4F)O3)cc2)CC1 (mixture of isomers) [Ex. 138]	–
–	–	–	–	–	–	–	–	–	–	–	–	–	–	–	50.0	0.39	>100	25.0	6.25	COc1cccc(C=C(F)OCC2COC(Cn3ccnc3)(c3ccc(F)cc3F)O2)c1 (mixture of isomers) [Ex. 43]	Minimal inhibitory concentration (MIC) [5]: 0.78 µg/mL; Minimal inhibitory concentration (MIC) [6]: 6.25 µg/mL; Minimal inhibitory concentration (MIC) [7]: 6.25 µg/mL; Minimal inhibitory concentration (MIC) [8]: 1.56 µg/mL; Minimal inhibitory concentration (MIC) [9]: 1.56 µg/mL; Minimal inhibitory concentration (MIC) [10]: 12.5 µg/mL; Minimal inhibitory concentration (MIC) (Candida krusei K. 11655): 12.5 µg/mL; Minimal inhibitory concentration (MIC) [11]: 1.56 µg/mL; Minimal inhibitory concentration (MIC) [12]: 25.0 µg/mL; Minimal inhibitory concentration (MIC) [13]: 12.5 µg/mL
–	–	–	–	–	–	–	–	–	–	–	–	–	–	–	100	0.78	12.5	50.0	25.0	FC(=Cc1ccccc1)OCC1COC(Cn2ccnc2)(c2ccc(F)cc2F)O1 (mixture of isomers) [Ex. 36]	Minimal inhibitory concentration (MIC) [5]: 0.78 µg/mL; Minimal inhibitory concentration (MIC) [6]: 1.56 µg/mL; Minimal inhibitory concentration (MIC) [7]: 25.0 µg/mL; Minimal inhibitory concentration (MIC) [8]: 3.13 µg/mL; Minimal inhibitory concentration (MIC) [9]: 0.39 µg/mL; Minimal inhibitory concentration (MIC) [10]: 25.0 µg/mL; Minimal inhibitory concentration (MIC) (Candida krusei K. 11655): 50.0 µg/mL; Minimal inhibitory concentration (MIC) [11]: 6.25 µg/mL; Minimal inhibitory concentration (MIC) [12]: 50.0 µg/mL; Minimal inhibitory concentration (MIC) [13]: 1.56 µg/mL
